The values that follow come from ChEMBL document CHEMBL4400558, “Optimization of Blood-Brain Barrier Permeability with Potent and Selective Human Neuronal Nitric Oxide Synthase Inhibitors Having a 2-Aminopyridine Scaffold” (J Med Chem, 2019).

This experiment has as its target Nitric oxide synthase 1 (Homo sapiens, UniProt P29475).

Each structure is given as a SMILES string.

Sequence of Nitric oxide synthase 1 (P29475 whole entry): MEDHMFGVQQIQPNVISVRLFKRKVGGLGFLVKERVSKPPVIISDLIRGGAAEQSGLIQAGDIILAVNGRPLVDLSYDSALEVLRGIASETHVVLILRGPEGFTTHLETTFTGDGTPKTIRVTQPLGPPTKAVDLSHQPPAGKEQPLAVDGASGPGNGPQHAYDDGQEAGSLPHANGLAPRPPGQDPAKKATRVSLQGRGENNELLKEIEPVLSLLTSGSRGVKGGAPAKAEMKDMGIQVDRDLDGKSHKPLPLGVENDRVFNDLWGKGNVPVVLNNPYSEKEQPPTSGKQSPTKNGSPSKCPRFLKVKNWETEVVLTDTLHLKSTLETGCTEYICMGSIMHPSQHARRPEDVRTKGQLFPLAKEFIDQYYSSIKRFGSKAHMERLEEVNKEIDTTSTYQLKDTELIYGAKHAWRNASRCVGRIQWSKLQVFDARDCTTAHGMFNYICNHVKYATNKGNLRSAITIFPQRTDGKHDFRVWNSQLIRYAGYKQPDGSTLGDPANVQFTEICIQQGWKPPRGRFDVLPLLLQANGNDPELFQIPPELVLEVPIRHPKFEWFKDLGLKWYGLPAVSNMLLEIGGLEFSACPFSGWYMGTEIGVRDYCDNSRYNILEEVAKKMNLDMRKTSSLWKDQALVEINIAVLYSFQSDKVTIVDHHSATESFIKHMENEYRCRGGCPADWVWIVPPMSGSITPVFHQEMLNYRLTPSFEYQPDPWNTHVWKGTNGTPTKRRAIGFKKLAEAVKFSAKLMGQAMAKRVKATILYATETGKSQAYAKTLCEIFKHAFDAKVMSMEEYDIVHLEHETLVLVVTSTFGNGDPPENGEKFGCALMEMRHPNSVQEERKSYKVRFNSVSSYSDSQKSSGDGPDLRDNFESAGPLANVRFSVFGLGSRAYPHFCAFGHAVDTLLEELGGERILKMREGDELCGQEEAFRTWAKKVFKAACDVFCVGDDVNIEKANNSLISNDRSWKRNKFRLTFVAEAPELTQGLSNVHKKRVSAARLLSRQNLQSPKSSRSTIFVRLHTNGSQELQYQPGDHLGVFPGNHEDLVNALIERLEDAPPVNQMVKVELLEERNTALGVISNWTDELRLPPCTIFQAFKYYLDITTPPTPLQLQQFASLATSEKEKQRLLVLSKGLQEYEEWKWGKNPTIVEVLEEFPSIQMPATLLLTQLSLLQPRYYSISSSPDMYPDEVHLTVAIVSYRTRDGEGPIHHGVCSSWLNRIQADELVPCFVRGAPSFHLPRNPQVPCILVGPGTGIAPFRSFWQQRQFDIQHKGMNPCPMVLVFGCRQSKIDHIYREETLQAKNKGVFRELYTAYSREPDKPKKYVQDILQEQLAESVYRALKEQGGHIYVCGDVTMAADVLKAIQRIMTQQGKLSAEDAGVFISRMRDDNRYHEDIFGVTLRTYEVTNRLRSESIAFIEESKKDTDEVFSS

Consider `Cc1cc(N)nc(CCc2cc(CCCN(C)C)cc(F)c2F)c1`, for which the inhibitory constant (Ki) turned out to be 29 nM. This lies in the double-digit nanomolar range.

The term Ki denotes the equilibrium dissociation constant of an inhibitor or competing ligand from its target. Low readings indicate higher affinity, high ones lower affinity.
